Series [1] deals with SOS regulon luxCDABE gene fusions. The experiment in a line: SOS regulon lux fusions: stress response in liquid LB. The series is classed as cell-based, E. coli. The procedure:
(§1) To test the stress responses, one or two single colonies of each selected strain were used to inoculate 5.0 ml of LB medium containing 150 μg/ml of ampicillin. These cultures were grown overnight at 37° C. then diluted by adding 50 μl or 100 μl of the overnight culture into 10.0 ml of fresh LB medium (without ampicillin) and grown with agitation at 37° C. until the culture was in exponential phase with readings on a Klett-Summerson colorimeter containing the red filter of between 10 and 40. These actively growing cultures were immediately used to initiate a stress response experiment by adding 50 μl of cultures to 50 μl of LB medium containing various concentrations of chemical in the wells a 96 well luminometer plate. This division of the actively growing culture at the time of chemical addition ensured identical populations were present when the stress was imposed. Light production was measured in a Dynex ML3000 luminometer at 37° C. The dimensionless units of light production, relative light units (RLU), are obtained by comparison with the light reading from an internal light-emitting diode.
The ability of these promoter-luxCDABE fusions to report activation of the SOS stress response was tested using nalidixic acid, a known, potent chemical inducer. The final concentrations of nalidixic acid were 1, 5, 25, and 125 μg/ml for all but strain DPD2293, which was tested at 80, 40, 20, 10, 5, 2.5, and 1.25 μg/ml.
Specificity of responses was tested by measuring the effect of ethanol on these SOS regulon gene fusions.

Series [2] relates to clpB-luxCDABE gene fusion. To be noted: 38 min. The source says: Plasmid DNA was isolated from lux-a.pk043.d3, digested with restriction enzyme XmaI, and ligated with T4 DNA ligase. The ligation reaction was used to transform E. coli strain DPD 1675 by electroporation. Transformants were selected by ampicillin resistance. […] The response to ethanol treatment of two of these light producing transformants that putatively contain inverted chromosomal inserts, of lux-a.pk054.c3 (DPD2243) that contains a plasmid with the clpB promoter operably linked to the luxCDABE reporter and of the original lux-a.pk043.d3 were compared. Actively growing cultures at 37° C. in LB medium were treated with 4% ethanol and light production was quantitated at 37° C. using a microplate luminometer (Dynex ML3000). Table 17 summarizes the average bioluminescence of duplicate samples at 38 min after treatment.

For series [3], the system named is heat shock regulon luxCDABE gene fusions. The series can be described thus: heat shock regulon lux fusions: stress response in liquid LB. The series is classed as cell-based, E. coli. To be noted: each of the six heat shock fusion strains; at least two of 5, 4, 3, 2 (v/v)% ethanol. Here is the method: as §1
In series [4] the test system is ahpC-luxCDABE gene fusions in pcnB- host. To be noted: both ahpC-lux fusions in pcnB- host; 0.004-0.00006%, all seven concentrations. Here is the method:
as §1

For series [5], the system named is OxyR regulon ahpC-luxCDABE gene fusions. To be noted: three ahpC-lux strains; 0.016-0.00025%. Here is the method:
as §1
To test if these strains would report on activation of the OxyR-controlled oxidative stress response, each was treated with hydrogen peroxide at 0.016, 0.008, 0.004, 0.002, 0.001, 0.0005, 0.00025%.

Another series deals with yebF-luxCDABE fusion. The experiment in a line: inverted yebF-luxCDABE fusion induction by DNA damaging agents. The series is classed as cell-based, E. coli. To be noted: yebF-luxCDABE fusion; mitomycin C, FIG. 2. The text has this:
In this case, a divergent promoter to the purT gene was present in the chromosomal fragment and strains containing the backward yebF fusion produced light. Following isolation of plasmid DNA, XmaI digestion that releases the insert DNA from the vector, religation and transformation, 10% of the transformants produced light. […] The orientation of the inserted segment to yield a fusion of yebF to the luxCDABE operon was confirmed by DNA sequence analysis.
To test inverting of a chromosomal segment in a plasmid containing divergent promoters, the backward fusion to yebF was chosen. […] In this case, a divergent promoter to the purT gene was present in the chromosomal fragment and strains containing the backward yebF fusion produced light. Following XmaI digestion, religation and transformation, 10% of the transformants produced light. […] This was verified by DNA sequence analysis. Thus, inverting chromosomal segments containing divergent promoters is possible and is facilitated if the two promoters can be distinguished by their biological activity.

The subject of series [6] is luxCDABE gene fusions to MMC array genes. The experiment in a line: Lux-A Collection fusions tested for MMC induction. The series is classed as cell-based, E. coli. The procedure:
The Lux-A Collection of reporter gene fusions was examined for presence of fusions to the genes in Table 11. […] Each of these was tested for induction by MMC at several doses over a time course of 100 minutes.
As expected, the expression of the known SOS genes was elevated; however the expression of several was elevated less than 2-fold (Table 12) and as such were within a large group of 792 genes the expression of which was elevated by 20% or more. Most of these are likely due to artifacts in the array data rather than to actual biologically relevant responses. To test if strains carrying luxCDABE gene fusions would yield the expected positive result, the three gene fusions that were available in the Lux-A Collection of reporter gene fusions were tested for mitomycin C responses.

Series [7] concerns E. coli strain MG1655 gene expression. The experiment in a line: DNA microarray experiment with mitomycin C. To be noted: MMC 250 ng/ml, 40 min. The series is classed as cell-based. The procedure: The E. coli strain MG1655 (rph-1) was used. Cultures grown in LB at 37° C. overnight were diluted 1 to 250 into fresh LB and grown at 37° C. with aeration. Each subculture was split into two 100 ml cultures when the reading on a Klett-Sammerson calorimeter with the red filter reads 20 Klett units. MMC (Sigma, dissolved in ddH2O) at a final concentration of 250 ng/ml, a sub-lethal dose, was added to one of the split cultures. The other culture was a no addition control. Incubation at 37° C. continued for another 40 minutes, then cells were collected for preparing total RNA. The MMC treated culture and its control reached 60 and 55 Klett units, respectively after 40 minute treatment.
Total RNA purification, first-strand cDNA labeling, preparation of the E. coli whole genome high-density microarray chips, hybridization and data analysis were done as previously described (Wei et al. (2001) J. Bacteriol. 183: 545-556). Both cy3 and cy5 were used in probe labeling, and the hybridization experiments were repeated by swapping the fluorescence cy dyes between each pair of MMC treated sample and its blank control.
Ratios of expression in the mitomycin C treated samples vs. controls were calculated for all genes in the DNA array. Ratios greater than or equal to 2 were considered induced genes, while those with ratios less than 2 fold were considered uninduced. The known SOS genes (Kim et al., (1997) Proc Natl Acad Sci USA Dec. 9, 1997; 94(25):13792-7; Lomba et al., (1997) FEMS Microbiol Lett 156:119-122; Walker, G. C. (1996). In Escherichia coli and Salmonella: Cellular and Molecular Biology. ASM Press pp.1400-1416) fell into both the induced (Table 11) and uninduced classes (Table 12).

The test system of series [8] is SoxR/S regulon luxCDABE gene fusions. The experiment in a line: SoxR/S regulon lux fusions: stress response in liquid LB. The series is classed as cell-based, E. coli. As to conditions: each of four strains; 1000-16 μg/ml, all seven concentrations. Here is the method: Like the SOS and heat shock regulon fusions, these had basal light production greater than the promoterless parental plasmid indicating the presence of a promoter. Responsiveness of four of these strains to a known inducer of the SoxR/S regulon, methyl viologen, was tested at 1000, 500, 250, 125, 62, 31 and 16 μg/ml. […] Table 8 gives the response ratio for 250 μg/ml at 120 minutes of treatment for the four tested strains. Here again, the biologically appropriate response was observed.

Like-named read-outs stand apart in the source and are kept apart here.

As for `CCO` [Ethanol], the response ratio in series [1] (DPD2249 dinP-lux, 3% ethanol, 40 min) came out at 0.80. Further, the “bioluminescence vs untreated control” value in series [1] (SOS regulon fusions, 5, 4, or 3% (v/v) ethanol) is “little to no increased bioluminescence”; in [3], “increased bioluminescence”. Besides, the “Light production in LB + 4% ethanol” value amounted to 29.63 RLU in [2] (Inverted lux-a.pk043.d3, second isolate) and 8.17 RLU in series [2] (inverted lux-a.pk043.d3, first isolate).

For the molecule `OO` [H2O2, hydrogen peroxide], the bioluminescence induction result was “dramatically induced increased bioluminescence” in series [4] and “minimally induced” in series [5].

As for `CO[C@@]12[C@H](COC(N)=O)C3=C(C(=O)C(C)=C(N)C3=O)N1C[C@@H]1N[C@@H]12` [MMC, mitomycin C], the induction of bioluminescence result in the series with yebF-luxCDABE fusion is listed as “induction by mitomycin C was demonstrated”. In series [6] (four fusions to genes not previously known MMC inducible), the gene expression response entry was “no evidence of increased gene expression”. Besides, in series [6] (four fusions to known SOS genes of Table 11, several doses, 100 min time course), the induction response entry was “induction of increased bioluminescence”. Further, the bioluminescence response entry in series [6] (three fusions to SOS genes of Table 12) was “induced increased bioluminescence”. The Fold induction/array expt worked out at 3.3 in series [7] (b0531); 2.2 in [7] (b0571 (ylcA)); 2.5 in series [7] (b1228); 3.3 in [7] (b1847 (yebF)); 2.0 in series [7] (b2559); 2.3 in series [7] (b2940). Also, the Fold induction/array expt came out at 2.0 in series [7] (b3199); 2.9 in [7] (cspA); 2.1 in [7] (dniR); 2.2 in series [7] (exbD); 6.7 in [7] (hslS); 4.0 in series [7] (hslT). For the same molecule, the Fold induction/array expt is 2.3 in [7] (infA); 2.1 in [7] (insA_4); 2.1 in series [7] (insB_1); 2.2 in series [7] (insB_2); 2.1 in series [7] (mioC); 2.2 in series [7] (secG). Also, the values for the Fold induction/array expt in series [7] (trkH) and in series [7] (xseA) were 2.1 and 2.0, respectively. The Fold induction/array experiment in series [7] (b1848 (yebG)) is listed as 5.8; in [7] (dinB (dinP)), 2.0; in series [7] (dinD), 2.2; in [7] (dinF), 1.8; in [7] (dinG) it was 1.4; in series [7] (dinI), 6.7. The Fold induction/array experiment in series [7] (himA) turned out to be 1.3; in [7] (lexA) it was 3.6; in [7] (polB (dinA)), 1.2; in series [7] (recA) it was 3.0; in series [7] (recN), 8.3; in series [7] (ruvA) it was 2.0. Also, the Fold induction/array experiment was found to be 1.5 in [7] (ruvB); 5.8 in [7] (sulA); 2.1 in series [7] (umuC); 1.2 in series [7] (umuD); 2.3 in [7] (uvrA); 2.1 in [7] (uvrB). For the same molecule, in series [7] (uvrD), the Fold induction/array experiment came out at 1.4.

For the molecule `C[n+]1ccc(-c2cc[n+](C)cc2)cc1` [Methyl viologen, methyl viologen], the “bioluminescence vs untreated control” value in series [8] is recorded as “induced increased bioluminescence”.

The values above are taken from patent publication US6716582B2 (priority 2000, dated 2004).
